In PubChem BioAssay (NCI):
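The concentration for 50% growth inhibition is given as GI50. The concentration for full growth arrest is given as TGI.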

What was measured:
Assay in all cases: growth of human tumour cells (NCI), 384-well format
MDA-MB-468 breast = tested on: MDA-MB-468 breast
EKVX NSCLC = tested on: EKVX NSCLC
HS 578T breast = tested on: HS 578T breast
MALME-3M melanoma = tested on: MALME-3M melanoma
RPMI-8226 leukemia = tested on: RPMI-8226 leukemia
SK-OV-3 ovarian = tested on: SK-OV-3 ovarian
HCC-2998 colon = tested on: HCC-2998 colon
OVCAR-3 ovarian = tested on: OVCAR-3 ovarian
SK-MEL-2 melanoma = tested on: SK-MEL-2 melanoma
COLO 205 colon = tested on: COLO 205 colon
SR leukemia = tested on: SR leukemia
SNB-75 CNS = tested on: SNB-75 CNS
OVCAR-4 ovarian = tested on: OVCAR-4 ovarian
A549 NSCLC = tested on: A549 NSCLC
HT29 colon = tested on: HT29 colon
MDA-MB-231 breast = tested on: MDA-MB-231 breast
SF-295 CNS = tested on: SF-295 CNS
MOLT-4 leukemia = tested on: MOLT-4 leukemia
SNB-19 CNS = tested on: SNB-19 CNS
ACHN renal = tested on: ACHN renal
HOP-62 NSCLC = tested on: HOP-62 NSCLC
M14 melanoma = tested on: M14 melanoma
HCT-15 colon = tested on: HCT-15 colon
TK-10 renal = tested on: TK-10 renal
MCF7 breast = tested on: MCF7 breast
NCI/ADR-RES ovarian = tested on: NCI/ADR-RES ovarian
HCT-116 colon = tested on: HCT-116 colon
NCI-H226 lung = tested on: NCI-H226 lung
SN12C renal = tested on: SN12C renal
A498 renal = tested on: A498 renal
SF-268 CNS = tested on: SF-268 CNS
NCI-H460 NSCLC = tested on: NCI-H460 NSCLC
U251 glioblastoma = tested on: U251 glioblastoma
CAKI-1 renal = tested on: CAKI-1 renal
UO-31 renal = tested on: UO-31 renal
HL-60(TB) leukemia = tested on: HL-60(TB) leukemia
UACC-257 melanoma = tested on: UACC-257 melanoma
SK-MEL-5 melanoma = tested on: SK-MEL-5 melanoma
T-47D breast = tested on: T-47D breast
K-562 leukemia = tested on: K-562 leukemia
RXF 393 renal = tested on: RXF 393 renal
SF-539 CNS = tested on: SF-539 CNS
CCRF-CEM leukemia = tested on: CCRF-CEM leukemia
SK-MEL-28 melanoma = tested on: SK-MEL-28 melanoma
NCI-H322M lung = tested on: NCI-H322M lung
BT-549 breast = tested on: BT-549 breast
LOX IMVI melanoma = tested on: LOX IMVI melanoma
HOP-92 NSCLC = tested on: HOP-92 NSCLC
MDA-MB-435 melanoma = tested on: MDA-MB-435 melanoma
PC-3 prostate = tested on: PC-3 prostate
UACC-62 melanoma = tested on: UACC-62 melanoma
786-0 renal = tested on: 786-0 renal
NCI-H522 lung = tested on: NCI-H522 lung
NCI-H23 lung = tested on: NCI-H23 lung
OVCAR-5 ovarian = tested on: OVCAR-5 ovarian
KM12 colon = tested on: KM12 colon
DU-145 prostate = tested on: DU-145 prostate
IGROV1 ovarian = tested on: IGROV1 ovarian
SW-620 colon = tested on: SW-620 colon

NC1(Cc2ccc(Cl)cc2)CCN(c2ncnc3[nH]ccc23)CC1
GI50 (MDA-MB-468 breast): 1.61 µM
TGI (MDA-MB-468 breast): 6.55 µM
GI50 (EKVX NSCLC): 4.51 µM
TGI (EKVX NSCLC): 16.5 µM
GI50 (HS 578T breast): 1.21 µM
TGI (HS 578T breast): 6.14 µM
GI50 (MALME-3M melanoma): 2.25 µM
TGI (MALME-3M melanoma): 5.8 µM
GI50 (RPMI-8226 leukemia): 1.36 µM
TGI (RPMI-8226 leukemia): 4.48 µM
GI50 (SK-OV-3 ovarian): 3.84 µM
TGI (SK-OV-3 ovarian): 17.3 µM
GI50 (HCC-2998 colon): 1.96 µM
TGI (HCC-2998 colon): 5.94 µM
GI50 (OVCAR-3 ovarian): 9.12 µM
TGI (OVCAR-3 ovarian): 21.4 µM
GI50 (SK-MEL-2 melanoma): 7.52 µM
TGI (SK-MEL-2 melanoma): 19 µM
GI50 (COLO 205 colon): 3.34 µM
TGI (COLO 205 colon): 12.3 µM
GI50 (SR leukemia): 2.07 µM
TGI (SR leukemia): 4 µM
GI50 (SNB-75 CNS): 1.54 µM
TGI (SNB-75 CNS): 7.76 µM
GI50 (OVCAR-4 ovarian): 16.4 µM
TGI (OVCAR-4 ovarian): 43.9 µM
GI50 (A549 NSCLC): 4.27 µM
TGI (A549 NSCLC): 15.5 µM
GI50 (HT29 colon): 2.63 µM
TGI (HT29 colon): 12.3 µM
GI50 (MDA-MB-231 breast): 4.76 µM
TGI (MDA-MB-231 breast): 16.4 µM
GI50 (SF-295 CNS): 2.74 µM
TGI (SF-295 CNS): 14.8 µM
GI50 (MOLT-4 leukemia): 1.09 µM
TGI (MOLT-4 leukemia): 2.6 µM
GI50 (SNB-19 CNS): 3.28 µM
TGI (SNB-19 CNS): 13.5 µM
GI50 (ACHN renal): 3.89 µM
TGI (ACHN renal): 15.8 µM
GI50 (HOP-62 NSCLC): 4.77 µM
TGI (HOP-62 NSCLC): 17.2 µM
GI50 (M14 melanoma): 4.51 µM
TGI (M14 melanoma): 16.1 µM
GI50 (HCT-15 colon): 3.93 µM
TGI (HCT-15 colon): 17.8 µM
GI50 (TK-10 renal): 3.15 µM
TGI (TK-10 renal): 13.3 µM
GI50 (MCF7 breast): 2.55 µM
TGI (MCF7 breast): 12.7 µM
GI50 (NCI/ADR-RES ovarian): 8.66 µM
TGI (NCI/ADR-RES ovarian): 21.1 µM
GI50 (HCT-116 colon): 3.67 µM
TGI (HCT-116 colon): 13.4 µM
GI50 (NCI-H226 lung): 5.53 µM
TGI (NCI-H226 lung): 18.1 µM
GI50 (SN12C renal): 3.46 µM
TGI (SN12C renal): 14.9 µM
GI50 (A498 renal): 3.16 µM
TGI (A498 renal): 14.8 µM
GI50 (SF-268 CNS): 5.54 µM
TGI (SF-268 CNS): 18.2 µM
GI50 (NCI-H460 NSCLC): 1.76 µM
TGI (NCI-H460 NSCLC): 9.36 µM
GI50 (U251 glioblastoma): 4.4 µM
TGI (U251 glioblastoma): 15.7 µM
GI50 (CAKI-1 renal): 3.96 µM
TGI (CAKI-1 renal): 16 µM
GI50 (UO-31 renal): 4.28 µM
TGI (UO-31 renal): 17.6 µM
GI50 (HL-60(TB) leukemia): 3.01 µM
TGI (HL-60(TB) leukemia): 9.25 µM
GI50 (UACC-257 melanoma): 1.93 µM
TGI (UACC-257 melanoma): 3.96 µM
GI50 (SK-MEL-5 melanoma): 3.17 µM
TGI (SK-MEL-5 melanoma): 12.8 µM
GI50 (T-47D breast): 2.35 µM
TGI (T-47D breast): 12.7 µM
GI50 (K-562 leukemia): 3.4 µM
TGI (K-562 leukemia): 15.7 µM
GI50 (RXF 393 renal): 2.14 µM
TGI (RXF 393 renal): 7.4 µM
GI50 (SF-539 CNS): 1.46 µM
TGI (SF-539 CNS): 7.16 µM
GI50 (CCRF-CEM leukemia): 2.31 µM
TGI (CCRF-CEM leukemia): 10.8 µM
GI50 (SK-MEL-28 melanoma): 2.26 µM
TGI (SK-MEL-28 melanoma): 5.94 µM
GI50 (NCI-H322M lung): 4.85 µM
TGI (NCI-H322M lung): 17.6 µM
GI50 (BT-549 breast): 1.63 µM
TGI (BT-549 breast): 5.8 µM
GI50 (LOX IMVI melanoma): 4.07 µM
TGI (LOX IMVI melanoma): 13.7 µM
GI50 (HOP-92 NSCLC): 2.2 µM
TGI (HOP-92 NSCLC): 9.62 µM
GI50 (MDA-MB-435 melanoma): 2.41 µM
TGI (MDA-MB-435 melanoma): 6.35 µM
GI50 (PC-3 prostate): 3.11 µM
TGI (PC-3 prostate): 15.8 µM
GI50 (UACC-62 melanoma): 4.76 µM
TGI (UACC-62 melanoma): 16.4 µM
GI50 ([…]-0 renal): 2.33 µM
TGI (786-0 renal): 12.1 µM
GI50 (NCI-H522 lung): 5.41 µM
TGI (NCI-H522 lung): 19.5 µM
GI50 (NCI-H23 lung): 4 µM
TGI (NCI-H23 lung): 16 µM
GI50 (OVCAR-5 ovarian): 6.84 µM
TGI (OVCAR-5 ovarian): 26.7 µM
GI50 (KM12 colon): 2.25 µM
TGI (KM12 colon): 11 µM
GI50 (DU-145 prostate): 8.33 µM
TGI (DU-145 prostate): 23 µM
GI50 (IGROV1 ovarian): 1.53 µM
TGI (IGROV1 ovarian): 9.67 µM
GI50 (SW-620 colon): 4.6 µM
TGI (SW-620 colon): 16.2 µM
